# Data reported in ChEMBL document CHEMBL5321213, “Nicolaioidesin C: An Antiausterity Agent Shows Promising Antitumor Activity in a Pancreatic Cancer Xenograft Mouse Model” (J Nat Prod, 2023).
# Legend:
# [1] = system: MIA PaCa-2; experiment: Antitumor activity against human MIA PaCa-2 cells xenografted in athymic BALB/c-nu mouse assessed as fold change in lysine level in tumor at 2 mg/kg/day, ip administered five times per week for 4 weeks by LC-MS analysis; format: functional
# [2] = system: MIA PaCa-2; experiment: Antitumor activity against human MIA PaCa-2 cells xenografted in athymic BALB/c-nu mouse assessed as fold change in D-ribulose 5-phosphate level in tumor at 2 mg/kg/day, ip administered five times per week for 4 weeks by LC-MS analysis; format: functional
# [3] = system: MIA PaCa-2; experiment: Antitumor activity against human MIA PaCa-2 cells xenografted in athymic BALB/c-nu mouse assessed as fold change in 2,6-diaminopimelicacid level in tumor at 10 mg/kg/day, ip administered five times per week for 4 weeks by LC-MS analysis; format: functional
# [4] = system: MIA PaCa-2; experiment: Inhibition of Akt/mTOR signaling pathway in human MIA PaCa-2 cells in nutrient-deprived medium assessed as reduction in mTOR phosphorylation at S2481 residue measured after 6 hrs by Western blot analysis; format: cell-based; conditions: dose 5-20 µM
# [5] = system: MIA PaCa-2; experiment: Antimetastatic activity in human MIA PaCa-2 cells in DMEM media assessed as inhibition of colony formation at 20 uM incubated for 24 hrs followed by replacement with fresh medium and measured after 10 days by crystal violet staining-based assay relative to control; format: functional
# [6] = system: MIA PaCa-2; experiment: Antitumor activity against human MIA PaCa-2 cells xenografted in athymic BALB/c-nu mouse assessed as fold change in phenyl alanine level in tumor at 2 mg/kg/day, ip administered five times per week for 4 weeks by LC-MS analysis; format: functional
# [7] = system: MIA PaCa-2; experiment: Antitumor activity against human MIA PaCa-2 cells xenografted in athymic BALB/c-nu mouse assessed as fold change in D-ribulose5-phosphate level in tumor at 10 mg/kg/day, ip administered five times per week for 4 weeks by LC-MS analysis; format: functional
# [8] = system: MIA PaCa-2; experiment: Antitumor activity against human MIA PaCa-2 cells xenografted in athymic BALB/c-nu mouse assessed as fold change in benzoic acid level in tumor at 2 mg/kg/day, ip administered five times per week for 4 weeks by LC-MS analysis; format: functional
# [9] = system: MIA PaCa-2; experiment: Antitumor activity against human MIA PaCa-2 cells xenografted in athymic BALB/c-nu mouse assessed as tumor wet weight at 10 mg/kg/day, ip administered five times per week for 4 weeks (reference value: 368 mg); format: functional
structure (smiles),measurement,setting,value
COc1cc(O)c(C(=O)[C@@H]2CC=C(CCC=C(C)C)C[C@H]2c2ccccc2)c(O)c1,fold change (FC),[1],0.32
same,fold change (FC),[2],0.22
same,fold change (FC),[3],0.36
same,inhibition,[4],Dose-Dependent Effect
same,inhibition at 20 µM,[5],95%
same,fold change (FC),[6],0.44
same,fold change (FC),[7],0.22
same,fold change (FC),[8],0.43
same,Activity,[9],119 mg
